In ChEMBL document CHEMBL5390265, “Design, Synthesis, and Pharmacological Evaluation of Multisubstituted Pyrido[4,3-d]pyrimidine Analogues Bearing Deuterated Methylene Linkers as Potent KRASG12D Inhibitors” (J Med Chem, 2023):

How the values were obtained:
Format in all cases: functional, cell-based
ASPC1 = experiment: Antiproliferative activity against human ASPC1 cells harboring […] assessed as inhibition of cell growth incubated for 5 days by crystal violet staining analysis
A549 = experiment: Antiproliferative activity against human A549 cells harboring […] assessed as inhibition of cell growth incubated for 5 days by crystal violet staining analysis
AGS = experiment: Antiproliferative activity against human AGS cells harboring […] assessed as inhibition of cell growth incubated for 5 days by crystal violet staining analysis
NCI-H1299 = experiment: Antiproliferative activity against human NCI-H1299 cells harboring KRAS wild type assessed as inhibition of cell growth incubated for 5 days by crystal violet staining analysis; conditions: NCI-H1299, 120 h

Row | IC50 (ASPC1; Homo sapiens, ASPC1, 120 h) [nM] | IC50 (A549; Homo sapiens, A549, 120 h) [nM] | IC50 (AGS; Homo sapiens, AGS, 120 h) [nM] | IC50 (NCI-H1299) [nM] | IC50 (ASPC1; aspc1) [nM] | IC50 (A549; a549) [nM] | IC50 (AGS; ags) [nM] | SMILES
1 | > 50 | > 5000 | > 50 | > 5000 | – | – | – | C#Cc1c(F)ccc2cc(O)cc(-c3ncc4c(N5C[C@H]6CC[C@@H](C5)N6)nc(OCCn5cc(COCC67CCCN6CC(=C)C7)nn5)nc4c3F)c12 (some centres not stated)
2 | > 50 | > 5000 | > 50 | > 5000 | – | – | – | C#Cc1c(F)ccc2cc(O)cc(-c3ncc4c(N5C[C@H]6CC[C@@H](C5)N6)nc(OC[C@]56CCCN5[C@@H](COC(=O)N5CCS(=O)(=O)CC5)CC6)nc4c3F)c12 (racemic)
3 | > 50 | > 5000 | > 50 | > 5000 | – | – | – | C#Cc1c(F)ccc2cc(O)cc(-c3ncc4c(N5C[C@H]6CC[C@@H](C5)N6)nc(OC[C@]56CCCN5[C@@H](Cn5cc(COCCOC)nn5)CC6)nc4c3F)c12 (racemic)
4 | > 50 | > 5000 | > 50 | > 5000 | – | – | – | [2H]C([2H])(Oc1nc(N2CCC(N(C)C)C2)c2cnc(-c3cc(O)cc4ccc(F)c(C#C)c34)c(F)c2n1)C12CCCN1CC(=C(F)F)C2 (configuration not stated)
5 | > 50 | > 5000 | > 50 | > 5000 | – | – | – | [2H]C([2H])(Oc1nc(N2C[C@H]3CC[C@@H](C2)N3)c2cnc(-c3cccc4c(F)cc(F)c(C#C)c34)c(F)c2n1)C12CCCN1CC(=C(F)F)C2 (some centres not stated)
6 | 1.1 | 960 | 0.6 | 1930 | – | – | – | [2H]C([2H])(Oc1nc(N2C[C@H]3CC[C@@H](C2)N3)c2cnc(-c3cc(O)cc4ccc(F)c(C#C)c34)c(F)c2n1)C12CC(=C)CN1CC(=C(F)F)C2 (some centres not stated)
7 | > 50 | > 5000 | > 50 | > 5000 | – | – | – | C#Cc1c(F)ccc2cc(O)cc(-c3ncc4c(N5C[C@H]6CC[C@@H](C5)N6)nc(N5C[C@@H]6C[C@H](C5)c5cccc(=O)n5C6)nc4c3F)c12
8 | > 50 | > 5000 | > 50 | > 5000 | – | – | – | C#Cc1c(F)ccc2cc(O)cc(-c3ncc4c(N5C[C@H]6CC[C@@H](C5)N6)nc(NCCCn5cc(COCC67CCCN6CC(=C)C7)nn5)nc4c3F)c12 (some centres not stated)
9 | – | – | – | – | 207 | > 5000 | 59.3 | C#CCN(C)C(=O)OC[C@H]1CC[C@@]2(COc3nc(N4C[C@H]5CC[C@@H](C4)N5)c4cnc(-c5cc(O)cc6ccc(F)c(C#C)c56)c(F)c4n3)CCCN12
10 | 2 | 2180 | 1.2 | 2500 | – | – | – | [2H]C([2H])(Oc1nc(N2C[C@H]3CC[C@@H](C2)N3)c2cnc(-c3cc(N)cc4cccc(C#C)c34)c(F)c2n1)C12CCCN1CC(=C(F)F)C2 (some centres not stated)
11 | – | – | – | > 5000 | 39.4 | 1760 | 25.5 | C#CCN(C)C(=O)OC[C@H]1CC[C@@]2(COc3nc(N4C[C@H]5CC[C@@H](C4)N5)c4cnc(-c5cc(O)cc6ccc(F)c(C#C)c56)c(F)c4n3)CCCN12 (racemic)
12 | > 50 | > 5000 | > 50 | > 5000 | – | – | – | [2H]C([2H])(Oc1nc(N[C@H]2CCCC[C@@H]2N(C)C)c2cnc(-c3cc(O)cc4ccc(F)c(C#C)c34)c(F)c2n1)C12CCCN1CC(=C(F)F)C2 (some centres not stated)
13 | > 50 | > 5000 | > 50 | > 5000 | – | – | – | C#Cc1c(F)ccc2cc(O)cc(-c3ncc4c(N5C[C@H]6CC[C@@H](C5)N6)nc(OC[C@H]5CC6CCN5C[C@@H]6C=C)nc4c3F)c12
14 | 42.2 | > 5000 | 12.6 | > 5000 | – | – | – | C#Cc1c(F)ccc2cc(O)cc(-c3ncc4c(N5C[C@H]6CC[C@@H](C5)N6)nc(OC[C@]56CCCN5[C@@H](COC(=O)NCC57C[C@H]8C[C@@H](C5)C[C@@H](C7)C8)CC6)nc4c3F)c12 (mixture of isomers)
15 | 3.9 | 944 | 1.1 | 3020 | – | – | – | [2H]C([2H])(Oc1nc(N2C[C@H]3CC[C@@H](C2)N3)c2cnc(-c3cc(O)cc4ccc(F)c(C#C)c34)c(F)c2n1)C12CC(=C)CN1CC1(CC1)C2 (some centres not stated)
16 | > 50 | > 5000 | > 50 | > 5000 | – | – | – | [2H]C([2H])(Oc1nc(NCC23CCCN2CCC3)c2cnc(-c3cc(O)cc4ccc(F)c(C#C)c34)c(F)c2n1)C12CCCN1CC(=C(F)F)C2 (configuration not stated)
17 | > 50 | > 5000 | > 50 | > 5000 | – | – | – | [2H]C([2H])(Oc1nc(N2C[C@H]3CC[C@@H](C2)N3)c2cnc(-c3c(Cl)c(C)cc4[nH]ncc34)c(F)c2n1)C12CCCN1CC(=C(F)F)C2 (some centres not stated)
18 | > 50 | > 5000 | > 50 | > 5000 | – | – | – | C#Cc1c(F)ccc2cc(O)cc(-c3ncc4c(N5C[C@H]6CC[C@@H](C5)N6)nc(OC[C@]56CCCN5[C@@H](Cn5cc(CCC#N)nn5)CC6)nc4c3F)c12 (racemic)
19 | 23.9 | 1020 | 15.4 | > 5000 | – | – | – | C#CCN(C)C(=O)OC[C@@H]1CC[C@]2(COc3nc(N4C[C@H]5CC[C@@H](C4)N5)c4cnc(-c5cc(O)cc6ccc(F)c(C#C)c56)c(F)c4n3)CCCN12
20 | > 50 | > 5000 | > 50 | > 5000 | – | – | – | [2H]C([2H])(Oc1nc(N2C[C@H]3CC[C@@H](C2)N3C)c2cnc(-c3cc(O)cc4ccc(F)c(C#C)c34)c(F)c2n1)C12CCCN1CC(=C(F)F)C2 (some centres not stated)
21 | > 50 | > 5000 | > 50 | > 5000 | – | – | – | [2H]C([2H])(Oc1nc(N2C[C@H]3CC[C@@H](C2)N3)c2cnc(-c3cccc4cc(F)c(F)c(C#C)c34)c(F)c2n1)C12CCCN1CC(=C(F)F)C2 (some centres not stated)

Row | SMILES | IC50 (ASPC1; Homo sapiens, ASPC1, 120 h) [nM] | IC50 (A549; Homo sapiens, A549, 120 h) [nM] | IC50 (AGS; Homo sapiens, AGS, 120 h) [nM] | IC50 (NCI-H1299) [nM] | IC50 (ASPC1; aspc1) [nM] | IC50 (A549; a549) [nM] | IC50 (AGS; ags) [nM]
22 | [2H]C([2H])(Oc1nc(N2C[C@H]3CC[C@@H](C2)N3)c2cnc(-c3cc(O)cc4ccc(F)c(C#C)c34)c(F)c2n1)C12CC(=C)CN1CC(=C)C2 | 1.3 | 559 | 0.4 | 2010 | – | – | –
23 | C#Cc1c(F)ccc2cc(O)cc(-c3ncc4c(N5C[C@H]6CC[C@@H](C5)N6)nc(OCC56CCCN5CC(=C)C6)nc4c3F)c12 (some centres not stated) | 4.6 | 2220 | 1.4 | > 5000 | – | – | –
24 | [2H]C([2H])(Oc1nc(N2C[C@H]3CC[C@@H](C2)N3)c2cnc(-c3cc(O)cc4ccc(F)c(C#C)c34)c(F)c2n1)C12CC(=C)CN1C[C@H](F)C2 (some centres not stated) | 1.6 | 2160 | 0.8 | > 5000 | – | – | –
25 | [2H]C([2H])(Oc1nc(N2C[C@H]3CC[C@@H](C2)N3)c2cnc(-c3cc(O)cc4ccc(F)c(C#C)c34)c(F)c2n1)C12CCCN1CC(=C)C2 (some centres not stated) | 3.8 | 948 | 1.1 | > 5000 | – | – | –
26 | [2H]C1([2H])CCC2(C([2H])([2H])Oc3nc(N4C[C@H]5CC[C@@H](C4)N5)c4cnc(-c5cc(O)cc6ccc(F)c(C#C)c56)c(F)c4n3)CC(=C)CN12 (some centres not stated) | 2 | 1680 | 0.8 | > 5000 | – | – | –
27 | [2H]C(Oc1nc(N2C[C@H]3CC[C@@H](C2)N3)c2cnc(-c3cc(O)cc4ccc(F)c(C#C)c34)c(F)c2n1)C12CCCN1CC(=C)C2 (some centres not stated) | 2.1 | 731 | 1.3 | > 5000 | – | – | –
